Source: patent US10829798B2, “DNA-linked enzyme-coupled assays” (THE REGENTS OF THE UNIVERSITY OF CALIFORNIA, priority 2014, dated 2020)

Target: T1, GT06 (UGT89B1 (AT1G73880)) (Arabidopsis thaliana, UniProt Q9C9B0)
T1 sequence (Q9C9B0 1-473): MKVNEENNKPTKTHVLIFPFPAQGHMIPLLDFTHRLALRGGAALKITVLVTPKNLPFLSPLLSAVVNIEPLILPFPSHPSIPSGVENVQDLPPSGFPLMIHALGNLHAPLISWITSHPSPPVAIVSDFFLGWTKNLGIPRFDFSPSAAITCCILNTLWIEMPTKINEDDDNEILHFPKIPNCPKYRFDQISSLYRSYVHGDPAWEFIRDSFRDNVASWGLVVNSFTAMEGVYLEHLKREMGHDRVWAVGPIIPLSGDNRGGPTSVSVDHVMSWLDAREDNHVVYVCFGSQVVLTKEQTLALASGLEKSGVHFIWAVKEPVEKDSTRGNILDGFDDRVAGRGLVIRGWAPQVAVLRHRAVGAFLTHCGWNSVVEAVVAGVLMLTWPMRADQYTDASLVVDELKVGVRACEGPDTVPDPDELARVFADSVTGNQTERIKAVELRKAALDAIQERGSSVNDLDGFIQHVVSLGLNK
Experiment: qPCR DLEnCA, cell-free transcription/translation-derived GT06
Assay type: biochemical
Settings: GT06 DNA 5 nM, chemical 1 mM, UDP-Glc 2 μM, probe 0.2 nM; low recovery = substrate glucosylated
Method: FIG. 4A-FIG. 4D. qPCR DLEnCA and substrate specificity studies. A. Chemicals used as substrates in subsequent assays: (i) known substrates of OleD; (ii) flavone library; (iii) known substrates of GT05 (UGT72B1 (Q9M156)) and GT06 (UGT89B1 (AT1 G73880)). B. DNA encoding OleD (5 nM) was incubated in a cell-free transcription/translation system for 3 hours at 37° C., followed by the addition of chemical (1 mM) and UDP-Glc (2 μM). After a subsequent incubation of 3 hours, TbGT and probe (0.2 nM) were added. After probe purification and MfeI digestion, probe integrity was identified using qPCR. Percent recovery of probe is reported (n=8; error bars=standard error). C. DNA encoding OleD (5 nM) was incubated for 3 hours at 37° C. in a cell-free transcription/translation system, followed by the addition of flavone (1 mM) and UDP-Glc (2 μM). After a subsequent incubation of 3 hours, TbGT and probe (0.2 nM) were added. After probe purification and MfeI addition, probe integrity was identified using qPCR. Percent recovery of probe is reported (n=8; error bars=standard error). D. DNA encoding OleD, GT05, or GT06 (5 nM) were incubated for 3 hours at 37° C. in a cell-free transcription/translation system, followed by the addition of chemical (1 mM) and UDP-Glc (2 μM). After a subsequent incubation of 3 hours, TbGT and probe (0.2 nM) were added. […]

## O=C(O)c1ccc(O)cc1 [XI, 4-hydroxybenzoic acid]
  recovery of probe: 25%
